Data reported in US10822337B2, “TGF-β inhibitorC” (Rigel Pharmaceuticals, Inc., priority 2015, dated 2020).

Experiments:
[1] = test system: GDF8 signaling (GDF pSMAD, MPC11); test: AlphaScreen SureFire SMAD3 (p-Ser423/425) assay, inhibition of GDF8 signaling; assay type: cell-based; conditions: Mus musculus, MPC-11, p-SMAD-3 (Ser423/425) in cell lysate after GDF8 stimulation
[2] = test system: TGF-β signaling (TGF-β pSMAD, MPC-11); test: AlphaScreen SureFire SMAD3 (p-Ser423/425) assay, inhibition of TGF-β signaling; assay type: cell-based; conditions: Mus musculus, p-SMAD-3 (Ser423/425) in cell lysate after TGF-β stimulation
How it was run: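 Cells in collagen-coated plates were pretreated about 10 minutes with three-fold DMSO serial dilutions of compound, then stimulated with TGF-β. They were lysed with about 25 μL 1× Lysis Buffer. Lysates in 384-well plates were incubated protected from light with Acceptor bead mix for 2 hours and Donor bead mix for 1½ hours. p-SMAD-3 (Ser423/425) was read on Synergy-4 or Enspire using AlphaScreen pSMAD3 settings.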

IC50 [1] [nM]	IC50 [2] [nM]	Structure (SMILES)
337	1480	FC(F)(F)c1cccc(-c2nn3c(c2-c2ccc4nccnc4c2)OCC3)c1 [Compound 64, 7-(Quinoxalin-6-yl)-6-(3-trifluoromethylphenyl)-2,3-dihydropyrazolo[5,1-b]oxazole]
626	1440	COc1c(F)ccc(-c2nn3c(c2-c2ccc4[nH]ncc4c2)CCC3)c1F [Compound 161, 5-(2-(2,4-Difluoro-3-methoxyphenyl)-5,6-dihydro-4H-pyrrolo[1,2-b]pyraozl-3-yl)-1H-indazole]
131	520	Fc1ccc(-c2nn3c(c2-c2ccc4ncnn4c2)CCC3)cc1 [Compound 103, 6-(2-(4-Fluorophenyl)-5,6-dihydro-4H-pyrrolo[1,2-b]pyrazol-3-yl)-[1,2,4]triazolo[1,5-a]pyridine]
46.6	139	Fc1ccc(Cl)cc1-c1nn2c(c1-c1ccc3ncccc3c1)CCC2 [Compound 176, 6-(2-(5-Chloro-2-fluorophenyl)-5,6-dihydro-4H-pyrrolo[1,2-b]pyrazol-3-yl)quinoline]
92.5	183	Clc1cccc(-c2nn3c(c2-c2ccc4[nH]ncc4c2)CCC3)c1 [Compound 22, 5-(2-(3-Chlorophenyl)-5,6-dihydro-4H-pyrrolo[1,2-b]pyrazol-3-yl)-1H-indazole]
439	677	FC(F)(F)Oc1cccc(-c2nn3c(c2-c2ccc4sncc4c2)CCC3)c1 [Compound 128, 5-(2-(3-Trifluoromethoxyphenyl)-5,6-dihydro-4H-pyrrolo[1,2-b]pyrazol-3-yl)benzo[d]isothiazole]
448	825	Fc1ccc(-c2nn3c(c2-c2ccc4ncnn4c2)CCC3)cc1OC(F)(F)F [Compound 154, 6-(2-(4-Fluoro-3-trifluoromethoxyphenyl)-5,6-dihydro-4H-pyrrolo[1,2-b]pyrazol-3-yl)-[1,2,4]triazolo[1,5-a]pyridine]
200	1040	Fc1ccc(-c2nn3c(c2-c2ccc4cn[nH]c4c2)CCC3)cc1 [Compound 6, 6-(2-(4-Fluorophenyl)-5,6-dihydro-4H-pyrrolo[1,2-b]pyrazol-3-yl)-1H-indazole]
100	343	Fc1ccc(-c2nn3c(c2-c2ccc4nccn4c2)CCC3)cc1Cl [Compound 144, 6-(2-(3-Chloro-4-fluorophenyl)-5,6-dihydro-4H-pyrrolo[1,2-b]pyrazol-3-yl)imidazo[1,2-a]pyridine]
172	714	Cc1cc(-c2nn3c(c2-c2ccc4[nH]ncc4c2)CCC3)c(F)cc1F [Compound 179, 5-(2-(2,4-Difluoro-5-methyphenyl)-5,6-dihydro-4H-pyrrolo[1,2-b]pyrazol-3-yl)-1H-indazole]
122	240	Clc1cccc(-c2nn3c(c2-c2ccc4cn[nH]c4c2)CCC3)c1 [Compound 23, 6-(2-(3-Chlorophenyl)-5,6-dihydro-4H-pyrrolo[1,2-b]pyrazol-3-yl)-1H-indazole]
98.5	659	Fc1cc(F)c(-c2nn3c(c2-c2ccc4nccnc4c2)CCC3)cc1F [Compound 118, 6-(2-(2,4,5-Trifluorophenyl)-5,6-dihydro-4H-pyrrolo[1,2-b]pyrazol-3-yl)quinoxaline]
587	1750	Cc1cc(-c2nn3c(c2-c2ccc4cn[nH]c4c2)CCC3)c(F)cc1F [Compound 180, 6-(2-(2,4-Difluoro-5-methylphenyl)-5,6-dihydro-4H-pyrrolo[1,2-b]pyrazol-3-yl)-1H-indazole]
309	863	FC(F)(F)c1cccc(-c2nn3c(c2-c2ccc4nccnc4c2)CCC3)c1 [Compound 58, 6-(2-(3-Trifluoromethylphenyl)-5,6-dihydro-4H-pyrrolo[1,2-b]pyrazol-3-yl)quinoxaline]
331	2640	Fc1ccc(-c2nn3c(c2-c2ccc4nccn4c2)OCC3)cc1 [Compound 67, 6-(4-Fluorophenyl)-7-(imidazo[1,2-a]pyridin-6-yl)-2,3-dihydropyrazolo[5,1-b]oxazole]
657	2450	Cc1cccc(-c2nn3c(c2-c2ccc4[nH]ncc4c2)OCCC3)c1 [Compound 40, 3-(1H-Indazol-5-yl)-2-(m-tolyl)-6,7-dihydro-5H-pyrazolo[5,1-b][1,3]oxazine]
80.8	188	Cc1cccc(-c2nn3c(c2-c2ccc4ncn(C)c4c2)OCCC3)c1 [Compound 41, 3-(1-Methyl-1H-benzo[d]imidazol-6-yl)-2-(m-tolyl)-6,7-dihydro-5H-pyrazolo[5,1-b][1,3]oxazine]
126	584	Fc1ccc(-c2nn3c(c2-c2ccc4ncnn4c2)CCC3)cc1F [Compound 110, 6-(2-(3,4-Difluorophenyl)-5,6-dihydro-4H-pyrrolo[1,2-b]pyrazol-3-yl)-[1,2,4]triazolo[1,5-a]pyridine]

IC50 [1] [nM]	IC50 [2] [nM]	Structure (SMILES)
26.4	334	Fc1ccc(F)c(-c2nn3c(c2-c2ccc4ncnn4c2)CCC3)c1 [Compound 198, 6-(2-(2,5-Difluorophenyl)-5,6-dihydro-4H-pyrrolo[1,2-b]pyrazol-3-yl)-[1,2,4]triazolo[1,5-a]pyridine]
234	1510	Cc1cccc(-c2nn3c(c2-c2ccc4ncccc4c2)CCC3)c1 [Compound 46, 6-(2-(m-Tolyl)-5,6-dihydro-4H-pyrrolo[1,2-b]pyrazol-3-yl)quinoline]
8.3	34.8	FC(F)(F)c1cccc(-c2nn3c(c2-c2ccc4nccn4c2)CCC3)c1 [Compound 34, 6-(2-(3-Trifluoromethylphenyl)-5,6-dihydro-4H-pyrrolo[1,2-b]pyrazol-3-yl)imidazo[1,2-a]pyridine]
375	1870	Fc1cccc(-c2nn3c(c2-c2ccc4ncsc4c2)CCC3)c1 [Compound 81, 6-(2-(3-Fluorophenyl)-5,6-dihydro-4H-pyrrolo[1,2-b]pyrazol-3-yl)benzo[d]thiazole]
177	909	Fc1ccc(F)c(-c2nn3c(c2-c2ccc4nccn4c2)CCC3)c1 [Compound 194, 6-(2-(2,5-Difluorophenyl)-5,6-dihydro-4H-pyrrolo[1,2-b]pyrazol-3-yl)imidazo[1,2-a]pyridine]
209	538	Cc1c(F)ccc(-c2nn3c(c2-c2ccc4[nH]ncc4c2)CCC3)c1F [Compound 167, 5-(2-(2,4-Difluoro-3-methylphenyl)-5,6-dihydro-4H-pyrrolo[1,2-b]pyrazol-3-yl)-1H-indazole]
129	500	Fc1ccc(-c2nn3c(c2-c2ccc4[nH]ncc4c2)CCC3)cc1 [Compound 5, 5-(2-(4-Fluorophenyl)-5,6-dihydro-4H-pyrrolo[1,2-b]pyrazol-3-yl)-1H-indazole]
67.5	77.4	FC(F)(F)Oc1cccc(-c2nn3c(c2-c2ccc4[nH]ncc4c2)CCC3)c1 [Compound 122, 5-(2-(3-Trifluoromethoxyphenyl)-5,6-dihydro-4H-pyrrolo[1,2-b]pyrazol-3-yl)-1H-indazole]
486	1750	Fc1ccc(-c2nn3c(c2-c2ccc4ncsc4c2)CCC3)cc1OC(F)(F)F [Compound 152, 6-(2-(4-Fluoro-3-trifluoromethoxyphenyl)-5,6-dihydro-4H-pyrrolo[1,2-b]pyrazol-3-yl)benzo[d]thiazole]
77	482	Fc1ccc(-c2nn3c(c2-c2ccc4nccn4c2)CCC3)c(F)c1 [Compound 94, 6-(2-(2,4-Difluorophenyl)-5,6-dihydro-4H-pyrrolo[1,2-b]pyrazol-3-yl)imidazo[1,2-a]pyridine]
208	703	Fc1c(Cl)cccc1-c1nn2c(c1-c1ccc3ncnn3c1)CCC2 [Compound 141, 6-(2-(3-Chloro-2-fluorophenyl)-5,6-dihydro-4H-pyrrolo[1,2-b]pyrazol-3-yl)-[1,2,4]triazolo[1,5-a]pyridine]
322	1650	COc1ccc(-c2nn3c(c2-c2ccc4cn[nH]c4c2)CCC3)cc1 [Compound 99, 6-(2-(4-Methoxyphenyl)-5,6-dihydro-4H-pyrrolo[1,2-b]pyrazol-3-yl)-1H-indazole]
776	4020	c1cc2c(cc1-c1nn3c(c1-c1ccc4[nH]ncc4c1)CCC3)OCO2 [Compound 90, 5-(2-(Benzo[d][1,3]dioxol-5-yl)-5,6-dihydro-4H-pyrrolo[1,2-b]pyrazol-3-yl)-1H-indazole]
106	350	Fc1cc(F)c(-c2nn3c(c2-c2ccc4[nH]ncc4c2)CCC3)cc1Cl [Compound 186, 5-(2-(5-Chloro-2,4-difluorophenyl)-5,6-dihydro-4H-pyrrolo[1,2-b]pyrazol-3-yl)-1H-indazole]
213	603	Cc1c(F)ccc(-c2nn3c(c2-c2ccc4ncsc4c2)CCC3)c1F [Compound 170, 6-(2-(2,4-Difluoro-3-methylphenyl)-5,6-dihydro-4H-pyrrolo[1,2-b]pyrazol-3-yl)benzo[d]thiazole]
604	1050	Cc1cc(-c2nn3c(c2-c2ccnc4[nH]ccc24)CCC3)ccc1F [Compound 4, 4-(2-(4-Fluoro-3-methylphenyl)-5,6-dihydro-4H-pyrrolo[1,2-b]pyrazol-3-yl)-1H-pyrrolo[2,3-b]pyridine]
130	456	FC(F)(F)c1cccc(-c2nn3c(c2-c2ccc4nccn4c2)OCC3)c1 [Compound 61, 7-(Imidazo[1,2-a]pyridin-6-yl)-6-(3-trifluoromethylphenyl)-2,3-dihydropyrazolo[5,1-b]oxazole]
